In paper PMC8081293 (Frontiers in Chemistry, 2021):
Where two headings read alike, the source gives them in different places.

Experiments:
Assay in all cases: acetophenone formation at […] nm, Michaelis-Menten fit
Type in all cases: biochemical
Details in all cases: 0.1 mM PLP, 0.25% DMSO, 50 mM sodium phosphate pH 8.0, 25°C
At-ATA [1] = biological target: T1, At-ATA (Aspergillus terreus, UniProt Q0C8G1, D224K)
T1 construct: gene ATEG_10023

At-ATA [2] = biological target: T2, At-ATA (Aspergillus terreus, UniProt Q0C8G1, E253A)
T2 construct: gene ATEG_10023

At-ATA [3] = biological target: T3, At-ATA (Aspergillus terreus, UniProt Q0C8G1, E133Q)
T3 construct: gene ATEG_10023

[4] = read-out: Km1-(R)-PEA /, 2.5 mM pyruvate
[5] = read-out: Kmpyruvate /, 2.5 mM 1-(R)-PEA

| Compound | Km (At-ATA [1]; [4]) | Km (At-ATA [2]; [4]) | Km (At-ATA [3]; [4]) | Km (At-ATA [1]; [5]) | Km (At-ATA [2]; [5]) | Km (At-ATA [3]; [5]) |
| --- | --- | --- | --- | --- | --- | --- |
| C[C@@H](N)c1ccccc1 [1-(R)-PEA] | 140 ± 10 µM | 170 ± 20 µM | 160 ± 10 µM |  |  |  |
| CC(=O)C(=O)O [pyruvate] |  |  |  | 350 ± 20 µM | 690 ± 10 µM | 500 ± 10 µM |
